Reference: US20250319032A1, “PHARMACEUTICAL COMPOSITIONS OF RIBOCICLIB” (Novartis AG, priority 2024, published 2025)
“And” between values parts separate entries of the source, which are not always exact repeats. Equal values may be shown once.

Key:
[1] = DMP433 (N-nitroso-ribociclib) content in ribociclib base (B10) and ribociclib succinate (B12, drug substance) batches and process experiments, LC-MS/MS or HPLC-HRMS; assay type: physicochemical; details: for DMP433 [ppb]: additional batches of ribociclib base LEE011-B10 (IP-1); for DMP433 in LEE011-B12 (IP): B10 Raybow batch 805193A078
Description: The method of testing for the presence and/or total amount of nitrosamines (such as the presence and/or total amount of N-nitroso-ribociclib in free or salt form) that is used in the methods of the invention may be any method which allows for the detection of nitrosamines in a composition. For example, the method may involve the Griess test described above. In such a method, the nitrosamines may be first denitrosated (e.g., by photolysis) to form a nitrite, which is then detected in the Griess test. Alternatively, the method may include high performance liquid chromatography (HPLC)- and/or gas chromatography (GC)-mass spectroscopy. An example of a method of testing for the presence and amount of nitrosamines (namely N-nitroso-ribociclib) is provided herein as Example 14. […]
2.7. […] Dissolve the substance using vortex and fill to volume with solvent (50% MeOH). • 3. Filter through 0.2 μm PVDF (polyvinylidene difluoride) or PTFE (polytetrafluoroethylene) filter into a HPLC amber vial, discard the first 0.5 ml.
A calibration curve for DMP433 is created, using calibration standard solutions L1-L6, and expressing the relationship between responses (peak areas) and standard concentrations (ng/ml). For L1, the average of 6 injections is used. Linear regression is weighed with 1/amount. […]

[2] = Nitrite content (ion chromatography; LC-FLD with DAN derivatisation; Griess test) in drug substance, intermediates, reagents, solvents, filters, excipients; assay type: physicochemical; details: for Nitrite [ppm] LOD (1 ppm): additional batches of ribociclib base LEE011-B10 (IP-1)
Summary of the method: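 Nitrite measured by Griess reaction (sulfanilamide diazotisation, N-(1-naphthyl)ethylenediamine azo coupling, spectrophotometric read) or by DAN derivatisation with C18 HPLC-fluorescence (10 mM KH2PO4 pH 8.0/methanol). About 1000 mg sample in 10 mL methanol/water 1:1; comparison standard ≈100 ppb nitrite.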

[3] = Drug product stability (film-coated tablets, tablet cores, blends, binary mixtures): content of DMP433 on storage; assay type: physicochemical
Experimental: The experiments were packed in aluminium bags.
Blends and compressed (compacted) mixtures of drug substance with the excipients crospovidone (Type A) and microcrystalline cellulose with standard and low nitrite content, and low substituted hydroxypropyl cellulose (L-HPC) from the drug product composition were subjected to accelerated storage conditions (40° C. and 50° C.) for periods up to 1 month. […]
Binary mixtures were prepared in the same portion as present in the formulation. The samples were packed in alu bags. […]
2.8. Sample solution-ribociclib FCT (KISQALI®) • 1. Grind and homogenize 10 tablets (IKA mill can be used). • 2. Into a 10 mL amber volumetric flask accurately about 180 mg of tablet powder (corresponding to 80 mg of ribociclib free base). • 3. Add solvent (50% MeOH) up to ⅔ of flask volume. Vortex the sample for 1 minute and shake on a mechanical shaker for at least 15 min. Fill to volume with solvent and use vortex for 1 minute. • 4. Filter through 0.2 μm PVDF or PTFE filter into a HPLC amber vial, discard the first 0.5 mL. […]
The content of DMP433 was analysed. […]

[4] = Validation of the HPLC-HRMS method for N-nitroso-ribociclib (precision, accuracy, linearity, LOQ, stability of standard and sample solutions)
Experimental: For the purpose of this validation only, the 100% target limit was set at 3.75 ppm (1500 ng NRR/400 mg ribociclib free base).
Six replicates of the “Sample solution” were prepared according to the procedure described above and tested on the same day. The results are expressed as ppm of NNR with regard to ribociclib free base (μg NNR/g ribociclib free base)
Two series of six replicates of the “Sample solutions” were prepared according to the procedure described above and tested by two different analysts, on two different days, using different LC/MS systems and different columns. The results are expressed as ppm of NNR with regard to ribociclib free base (μg NNR/g ribociclib free base)
Three replicates of calibration standard solutions L1 (c=0.5 ng/ml) and L6 (c=100 ng/ml) were prepared according to the procedure described above. Solutions were stored in the dark at room temperature (autosampler (AS) vials). After a period of time, the solutions were reanalyzed. The stability of standard solutions is evaluated by determining the relative difference between the responses […] The results are expressed as concentration in ng/ml, determined from calibration curve in each sequence (time point).
Three replicates of Sample solution were prepared according to AP. The replicates were analysed at t=0 h and after app. 24 hours and 48 hours of storage in vials AS at room temperature. The results are expressed as ppm of NNR wrt ribociclib free base. (μg NNR/g ribociclib free base).
In addition, FCT samples stored in flasks on the bench were filtered at defined time point and analysed. For 48 hours stability, composite samples (from Accuracy) were used.
Sample solutions were prepare according to the procedure described above using 10 mL, 25 mL and 50 mL flasks, three replicates for each volume. Results for 25 mL and 50 mL were compared to 10 mL volume that is prescribed in the AP. The results are expressed as ppm of NNR with regard to ribociclib free base (μg NNR/g ribociclib free base)
For ribociclib FCT, one composite sample preparation and three replicates of spiked composite sample solutions (prepared as described above) were prepared and tested on the same day.
The samples (drug substance or composite sample) were spiked at 0.5 ng/ml (0.0625 ppm), 30 ng/mlL (3.75 ppm) and 100 ng/ml (12.5 ppm) levels. Amount of NNR present in the unspiked sample was subtracted and recoveries were calculated as a ratio between amounts found and amounts added.
In each sequence, calibration solution L1 was injected six times as part of SST test (Repeatability of injections) and the average response was taken for the calculation of calibration curve. Linear regression was weighed with 1/amount.
Amount of NNR present in the unspiked sample was subtracted (see above) and RSD of corrected amounts calculated.

[5] = NDMA content in LEE011-B12 (IP) after ion exchange resin treatment (option 2 process); assay type: physicochemical; details: (n.d.)
[6] = DSC, heating rate 10 ° C./min (with pinhole), cited from earlier work
[7] = starting material used in the theoretical calculation
[8] = laboratory use test, salt formation B10 to B12 with filter parts added (filter per experiment), AS&T LJ LC-MS/MS
[9] = laboratory use test, salt formation B10 to B12 with filter parts added, QLS LJ LC-FLD/DAN
[10] = Raybow batch 805193A078, starting material of resin loading experiments

CN(C)C(=O)c1cc2cnc(Nc3ccc(N4CCNCC4)cn3)nc2n1C1CCCC1 [Batch B704193]
DMP433 [ppb] [1]: 57 ppb | DMP433 [ppm] LOQ (0.0625 ppm) ([1]; ribociclib base (LEE011 B10)): LOQ | DMP433 [ppm], result in brackets (extrapolation, estimate of actual value below LOQ) ([1]; ribociclib base (LEE011 B10)): 0.006 ppm | Nitrite [ppm] LOD (1 ppm) [2]: <LOD

CN(C)C(=O)c1cc2cnc(Nc3ccc(N4CCNCC4)cn3)nc2n1C1CCCC1 [Batch B705468]
DMP433 [ppb] [1]: 130 ppb | DMP433 [ppm] [1, 7]: 0.03 ppm | Nitrite [ppm] LOD (1 ppm) [2]: <LOD | Nitrite [ppm] [2, 7]: <0.1 ppm

CN(C)C(=O)c1cc2cnc(Nc3ccc(N4CCNCC4)cn3)nc2n1C1CCCC1.O=C(O)CCC(=O)O [DS (B699003AA) (compact)]
DMP433 content ([3]; T0, binary mixtures/blends/compacts, alu bags): 0.7 ppm | DMP433 content ([3]; T 1 m (50° C./75% RH), alu bags): 1.1 ppm | DMP433 content ([3]; T 2 w (40° C./75% RH), alu bags): 0.9 ppm | DMP433 content ([3]; T 2 w (50° C./75% RH), alu bags): 0.8 ppm

CN(C)C(=O)c1cc2cnc(Nc3ccc(N4CCNCC4)cn3)nc2n1C1CCCC1.O=C(O)CCC(=O)O [DS (B699003AA) compact]
DMP433 content ([3]; binary studies of drug substance with excipients, T0): 0.7 ppm | DMP433 content ([3]; binary studies, 40° C., T 2 Weeks): 0.9 ppm | DMP433 content ([3]; binary studies, 50° C., T 1 Month): 1.1 ppm | DMP433 content ([3]; binary studies, 50° C., T 2 Weeks): 0.8 ppm

CN(C)C(=O)c1cc2cnc(Nc3ccc(N4CCNCC4)cn3)nc2n1C1CCCC1 [LEE011-B10 24003]
DMP433 (ppm) in B10 ([1]; B10 batches on commercial scale, potassium carbonate of different nitrite level): 0.05 ppm | Nitrite [ppm] ([2]; in B10 batches on commercial scale, potassium carbonate of different nitrite level): 0.1 ppm

CN(C)C(=O)c1cc2cnc(Nc3ccc(N4CCNCC4)cn3)nc2n1C1CCCC1.O=C(O)CCC(=O)O [LEE011-cusakal1-021]
DMP433 [ppm] [1, 8]: 1.682 LJ ppm | Nitrite [ppm] [2, 9]: app. 0.26 ppm

CN(C)C(=O)c1cc2cnc(Nc3ccc(N4CCNCC4)cn3)nc2n1C1CCCC1 [LEE011-cusakal1-032]
DMP433 [ppm] [1, 8]: 1.487 ppm | Nitrite [ppm] [2, 9]: app. 0.3 ppm

CN(C)C(=O)c1cc2cnc(Nc3ccc(N4CCNCC4)cn3)nc2n1C1CCCC1.O=C(O)CCC(=O)O [LEE011-cusakal1-033]
DMP433 [ppm] [1, 8]: 1.272 ppm | Nitrite [ppm] [2, 9]: app. 0.3 ppm

CN(C)C(=O)c1cc2cnc(Nc3ccc(N4CCNCC4)cn3)nc2n1C1CCCC1.O=C(O)CCC(=O)O [LEE011-cusakal1-034]
DMP433 [ppm] [1, 8]: 1.789 ppm | Nitrite [ppm] [2, 9]: app. 0.2 ppm

CN(C)C(=O)c1cc2cnc(Nc3ccc(N4CCNCC4)cn3)nc2n1C1CCCC1.O=C(O)CCC(=O)O [LEE011-cusakal1-035]
DMP433 [ppm] [1, 8]: 1.661 ppm | Nitrite [ppm] [2, 9]: app. 0.2 ppm

CN(C)C(=O)c1cc2cnc(Nc3ccc(N4CCNCC4)cn3)nc2n1C1CCCC1.O=C(O)CCC(=O)O [LEE011-cusakal1-036]
DMP433 [ppm] [1, 8]: 2.100 ppm | Nitrite [ppm] [2, 9]: app. 0.3 ppm

CN(C)C(=O)c1cc2cnc(Nc3ccc(N4CCNCC4)cn3)nc2n1C1CCCC1.O=C(O)CCC(=O)O [LEE011-cusakan1-050]
DMP433 [ppm] [1, 8]: 0.530 ppm | Nitrite [ppm] [2, 9]: app. 0.6 ppm

CN(C)C(=O)c1cc2cnc(Nc3ccc(N4CCNCC4)cn3)nc2n1C1CCCC1.O=C(O)CCC(=O)O [Ribociclib Succinate Drug Substance]
NNR Amount found (ppm) ([4]; level S0, unspiked): 0.3328 ppm and 0.3246 ppm and 0.3256 ppm | NNR Amount found (ppm) ([4]; level S1, spiked 0.0625 ppm): 0.3754 ppm and 0.3778 ppm and 0.3796 ppm and 0.3774 ppm and 0.3781 ppm and 0.3824 ppm | NNR Amount found (ppm) ([4]; level S2, spiked 3.75 ppm): 3.5823 ppm and 3.7302 ppm and 3.8822 ppm | NNR Amount found (ppm) ([4]; level S3, spiked 12.5 ppm): 11.0295 ppm and 11.6248 ppm and 11.8859 ppm

CN(C)C(=O)c1cc2cnc(Nc3ccc(N4CCNCC4)cn3)nc2n1C1CCCC1.O=C(O)CCC(=O)O [Ribociclib succinate]
NDMA in LEE011-B12 (IP) ([5]; resin loading vs B10 20 w/w %): <100 ppb | NDMA in LEE011-B12 (IP) ([5]; resin loading vs B10 50 w/w %): <100 ppb | NDMA in LEE011-B12 (IP) ([5]; resin loading vs B10 100 w/w %): <100 ppb | depletion of DMP433 in the ribociclib succinate (B12) crystal by additional washing ([1]; 3 washes vs 2 washes of isopropanol): about 38% | DMP433 in LEE011-B12 (IP) ([1]; resin loading vs B10 20 w/w %, option 2 process): 220 ppb | DMP433 in LEE011-B12 (IP) ([1]; resin loading vs B10 50 w/w %, wet cake): 211 ppb | DMP433 in LEE011-B12 (IP) ([1]; resin loading vs B10 100 w/w %, wet cake): 238 ppb

CN(C)C(=O)c1cc2cnc(Nc3ccc(N4CCNCC4)cn3)nc2n1C1CCCC1 [Ribociclib, 7-cyclopentyl-N, N-dimethyl-2-{[5-(piperazin-1-yl)pyridin-2-yl]amino}-7H-pyrrolo[2,3-d]pyrimidine-6-carboxamide]
DMP433 in LEE011-B10 [1, 10]: 92 ppb | DMP433, best result ([1]; isopropanol distilled over ascorbic acid, B10 added last): 0.34 ppm | Nitrite in LEE011-B10 [2, 10]: 257 ppb

CN(C)C(=O)c1cc2cnc(Nc3ccc(N4CCNCC4)cn3)nc2n1C1CCCC1.O=C(O)CCC(=O)O [ribociclib succinate Form E]
Endothermic onset [6]: 210.0 °C | Enthalpy ([6]; melting/decomposition, for information only): 194.8 J/g

CN(C)C(=O)c1cc2cnc(Nc3ccc(N4CCNCC4)cn3)nc2n1C1CCCC1.O=C(O)CCC(=O)O [ribociclib succinate drug substance]
NNR Average (ppm), Ruggedness ([4]; n = 6): 0.241 ppm | NNR Total average (ppm) ([4]; n = 12, intermediate precision): 0.240 ppm | NNR (ppm), Ruggedness, single replicate ([4]; second analyst, day, LC/MS system and column, replicates R1-R6): 0.287 ppm and 0.243 ppm and 0.244 ppm and 0.176 ppm and 0.262 ppm and 0.235 ppm
